From patent US20080112954A1, “Method for treating chronic pain” (Parker College of Chiropractic, priority 2006, published 2008)

Legend:
naïve rats = test: Thermal sensitivity of naïve rats after intrathecal EphB receptor activators; format: in vivo, rat; conditions: prior injection of 20 μg
[1] = test system: synapses between C-fibers and DH neurons; test: LTP of C-fiber evoked field potentials in spinal dorsal horn in vivo; design: species or system rat; conditions: for LTP produced by 4 high-frequency trains of nerve shock: naïve animals
Procedure: Under anesthesia, a cannula was inserted into the trachea to allow artificial ventilation and another cannula containing heparin (0.03%) saline was inserted into the left carotid artery to monitor the blood pressure. The rat was placed in a stereotaxic frame, then was paralyzed by an intravenous injection of pancuronium bromide (4 mg/kg) and artificially ventilated with air at a tidal volume of 15 ml/kg. Adequate anesthesia was confirmed intermittently during neuromuscular blockade in terms of the following two criteria: (1) the pupils were constricted; (2) the blood pressure remained stable during noxious stimulation. Core body temperature was monitored through a thermister probe inserted into the rectum and maintained at 37.5±0.5° C. by means of a feedback-controlled heating pad under the ventral surface of the abdomen. In each experiment phosphate-buffered saline (PBS) was intermittently administered via a jugular vein cannula to maintain hydroelectrolyte balance. A laminectomy was performed to expose the lumbar spinal cord. The dura mater was then removed the exposed cord was immediately covered with warm agar (2% in saline). After the agar hardened, a small hole was made above the recording site for application of drug or vehicle. At the end of each experiment, the animals were killed by an overdose of intravenous pentobarbital (200 mg/kg).
Long-term potentiation (LTP) tests were performed on naïve rats. The protocol for the electrophysiological recordings of C-fiber evoked field potentials was similar to that described previously (Liu and Sandkuhler, 1998). The recordings were made at depths of 200-500 μm from the surface of the spinal cord between L4-L5 with glass capillary microelectrodes (DC resistances 3-5 MΩ filled with 2 M NaCl). The sciatic nerve was stimulated by a bipolar platinum hook electrode. […] Examples of the C-fiber-evoked field potentials given in each figure were recorded before (a) and after (b) tetanic stimulation (indicated by the arrow therein) or ephrinB1-Fc. […]

C[C@]12N[C@H](Cc3ccccc31)c1ccccc12 [MK-801, dizocilpine]
thermal hypersensitivity induced by injection of ephrinB1-Fc or ephrinB2-Fc (naïve rats): prevented
LTP produced by 4 high-frequency trains of nerve shock ([1]; post-treatment): not interrupted
LTP induced by the combination of ephrinB1-Fc and 2 tetanic trains ([1]; pre-treatment, n=5): blocked
LTP produced by 4 high-frequency trains of nerve shock ([1]; topical pre-treatment): blocked
